Test: solvent given as SMILES

Work on `CC1=N/C(=C\c2ccccc2N)C(=O)N1C` yielded an absorption maximum (in C1CCCCC1) of 427 nm, an absorption maximum (in C1CCOC1) of 430 nm and an absorption maximum (in CC#N) of 422 nm. The absorption maximum (in CO) was 424 nm, the absorption maximum (in CS(C)=O) was 436 nm and the absorption maximum (in ClCCl) was 422 nm. The absorption maximum (in O) was 390 nm.
For `N#Cc1nc2cnc(N)nc2n1Cc1ccccc1`, the absorption maximum (in C1COCCO1) was 331 nm, the absorption maximum (in CC#N) was 330 nm and the absorption maximum (in CO) was 333 nm. The absorption maximum (in ClCCl) was 326 nm and the absorption maximum (in O) was 331 nm.
Molecule `NS(=O)(=O)c1ccc(N2N=C(c3ccc(O)cc3)CC2c2ccccc2)cc1` (configuration not stated) has an absorption maximum (in C1CCOC1) of 359 nm, an absorption maximum (in C1COCCO1) of 359 nm and an absorption maximum (in CC#N) of 358 nm. It also gave an absorption maximum (in CC(C)O) of 357 nm, an absorption maximum (in CCO) of 357 nm and an absorption maximum (in CCOC(C)=O) of 357 nm. The absorption maximum (in CN(C)C=O) was 361 nm, the absorption maximum (in CO) was 357 nm and the absorption maximum (in CS(C)=O) was 364 nm. For the same molecule, the absorption maximum (in O) was 359 nm.
`N#Cc1c(-n2c3ccc(Br)cc3c3cc(Br)ccc32)c(C#N)c(-n2c3ccc(Br)cc3c3cc(Br)ccc32)c(-n2c3ccc(Br)cc3c3cc(Br)ccc32)c1-n1c2ccc(Br)cc2c2cc(Br)ccc21` showed an absorption maximum (in Cc1ccccc1) of 374 nm.
Molecule `COCCOCCOCCOCC(COCCOCCOCCOC)Oc1cc(/C=C/c2ccc(/C=C(\C#N)c3ccccc3)cc2)c(OC(COCCOCCOCCOC)COCCOCCOCCOC)cc1/C=C/c1ccc(/C=C(\C#N)c2ccccc2)cc1` has an absorption maximum (in ClCCl) of 433 nm.
For `CCN(CC)c1ccc2cc(-c3nc4c5ccccc5c5ccccc5c4n3-c3ccc(C(C)(C)C)cc3)c(=O)oc2c1`, the absorption maximum (in ClCCl) was 410 nm.
For `CCOC(=O)c1cc2ccc3ccccc3c2c(C#N)c1N`, the absorption maximum (in Cc1ccccc1) was 435 nm.
Molecule `COC(=O)C(NC(=O)OC(C)(C)C)c1ccc2oc(-c3ccc(N(C)C)cc3OC)nc2c1` (configuration not stated) has an absorption maximum (in CC1CCCCC1) of 336 nm, an absorption maximum (in CC#N) of 343 nm and an absorption maximum (in CO) of 346 nm.
With `N#Cc1cc2ccccc2oc1=O` the absorption maximum (in C1CCCCC1) was 342 nm, the absorption maximum (in C1CCOC1) was 338 nm and the absorption maximum (in CC#N) was 336 nm. It also gave an absorption maximum (in CCOC(C)=O) of 339 nm, an absorption maximum (in CS(C)=O) of 334 nm and an absorption maximum (in ClC(Cl)Cl) of 340 nm.
For `CC1(C)Cc2c(c3ccccc3c3nc4ccccc4nc23)O1`, the absorption maximum (in C1CCCCC1) was 456 nm, the absorption maximum (in C1CCOC1) was 459.98 nm and the absorption maximum (in CN(C)C=O) was 457.04 nm. The absorption maximum (in CO) was 458.09 nm, the absorption maximum (in ClC(Cl)Cl) was 459.98 nm and the absorption maximum (in c1ccccc1) was 458.09 nm.
For `CN(C)c1ccc(/C=C/C(=O)c2ccc(Cl)cc2)cc1`, the absorption maximum (in C1CCOC1) was 413 nm, the absorption maximum (in CC#N) was 419 nm and the absorption maximum (in CC(=O)O) was 430 nm. The absorption maximum (in CC(C)=O) was 418 nm, the absorption maximum (in CCO) was 429 nm and the absorption maximum (in CN(C)C=O) was 427 nm. It also gave an absorption maximum (in CO) of 428 nm, an absorption maximum (in Cc1ccccc1) of 416 nm and an absorption maximum (in ClC(Cl)Cl) of 426 nm. The absorption maximum (in c1ccccc1) was 420 nm.
Work on `COc1cc(OC)cc(-c2ccc(-c3ccc(C#N)s3)s2)c1` yielded an absorption maximum (in C1CCCCC1) of 360 nm, an absorption maximum (in C1COCCO1) of 366 nm and an absorption maximum (in CC#N) of 364 nm. The absorption maximum (in CC(C)O) was 365 nm, the absorption maximum (in CCCCO) was 367 nm and the absorption maximum (in CCO) was 365 nm. For the same molecule, the absorption maximum (in CCOC(C)=O) was 365 nm, the absorption maximum (in CN(C)C=O) was 370 nm and the absorption maximum (in CO) was 364 nm. It also gave an absorption maximum (in CS(C)=O) of 372 nm, an absorption maximum (in Cc1ccccc1) of 366 nm and an absorption maximum (in ClC(Cl)Cl) of 367 nm. The absorption maximum (in ClCCl) was 366 nm and the absorption maximum (in O) was 337 nm.
In the case of `Oc1cc2ccc3cc(O)cc4ccc(c1)c2c34`, the absorption maximum (in CO) is reported as 381 nm.
`CC1=C(/C=C/c2ccccc2)C(C)=[N+]2C1=C(c1ccccc1)c1c(C)c(/C=C/c3ccccc3)c(C)n1[B-]2(F)F` gave an absorption maximum (in ClC(Cl)Cl) of 575 nm.
Molecule `CCOC(=O)c1c2c3c(ccc(F)c3c3cc4ccccc4cc13)N(C)C2=O` has an absorption maximum (in CC#N) of 410 nm.
For `CCCCCCCCCCCCOc1ccc(C#Cc2ccc(C#Cc3ccc(OCCCCCCCCCCCC)c(OCCCCCCCCCCCC)c3)c3nc4c5ccccc5c5ccccc5c4nc23)cc1OCCCCCCCCCCCC`, the absorption maximum (in C1CCOC1) was 461 nm, the absorption maximum (in Cc1ccccc1) was 461 nm and the absorption maximum (in ClCCl) was 461 nm.
Work on `COc1cc2c(cc1OC)C1=C[C@H](c3ccccc3)C3(C(C(=O)O[C@@H]4C[C@H]5CC[C@@H]4C5)=C(C(=O)O[C@H]4C[C@@H]5CC[C@H]4C5)N1CC2)c1ccccc1-c1ccccc13` yielded an absorption maximum (in ClCCl) of 314 nm.
`O=[N+]([O-])c1ccc2c(c1)-c1c3c(c4c([n+]1[B-](F)(F)O2)CCc1ccccc1-4)CCc1ccccc1-3` gave an absorption maximum (in ClCCl) of 343 nm.
With `COc1ccc2cc(C3=[N+]4C(=Nc5c(-c6ccccc6)cc(-c6ccc7cc(OC)ccc7c6)n5[B-]4(F)F)C(c4ccccc4)=C3Br)ccc2c1` the absorption maximum (in ClC(Cl)Cl) was 695 nm and the absorption maximum (in ClCCl) was 695 nm.
In the case of `c1ccc(-c2cc3c(-c4ccccc4)c4cccc5c(-c6ccccc6)cc6c(-c7ccccc7)c7cccc2c7c3c6c54)cc1`, the absorption maximum (in ClCCl) is reported as 454 nm.
`Clc1nc(Cl)nc(Nc2ccc3ccc4cccc5ccc2c3c45)n1` showed an absorption maximum (in CC#N) of 341 nm, an absorption maximum (in CCCCOCCCC) of 341 nm and an absorption maximum (in CO) of 340 nm.
`CC(C)Oc1ccc(C#Cc2ccc3ccc(=O)oc3c2)cc1` showed an absorption maximum (in CC#N) of 310 nm.
Molecule `Cc1cc(-n2c3ccccc3c3cc(C#N)ccc32)ccc1-c1ccc(S(=O)(=O)c2ccccc2)cc1C` has an absorption maximum (in Cc1ccccc1) of 341 nm.
`c1ccc(-c2pc3ccccc3s2)cc1` (configuration not stated) showed an absorption maximum (in CC#N) of 330 nm.
`c1cnc(-c2c3ccccc3c(-c3ncccn3)c3ccccc23)nc1` gave an absorption maximum (in CCO) of 389 nm and an absorption maximum (in ClCCl) of 389 nm.
For `COc1cccc2cc(C)c3c4ccccc4[nH]c3c12`, the absorption maximum (in ClCCl) was 360 nm.
`Nc1nc2ccc(Br)cc2s1` gave an absorption maximum (in CC#N) of 269 nm and an absorption maximum (in ClCCl) of 268 nm.
With `C(=C1c2ccccc2CCc2ccccc21)c1ccc(C=C2c3ccccc3CCc3ccccc32)cc1` the absorption maximum (in C1CCOC1) was 330 nm.
For `COc1ccc(-c2csc(/C(C#N)=C/c3ccc(Cl)cc3Cl)n2)cc1`, the absorption maximum (in CC#N) was 377 nm.
In the case of `Fc1ccc(N(c2ccccc2)c2ccc3ccc4c(N(c5ccccc5)c5ccc(F)cc5)ccc5ccc2c3c54)cc1`, the absorption maximum (in ClCCl) is reported as 423 nm.
With `CCCCCCN(CCCCCC)c1ccc(C#Cc2ccc(C#N)cc2)cc1` the absorption maximum (in CC#N) was 379 nm, the absorption maximum (in CO) was 378 nm and the absorption maximum (in ClCCl) was 385 nm.
In the case of `Fc1ccc(-c2cc3c4c(c2)CCc2cc(-c5ccc(F)cc5)cc(c2-4)CC3)cc1`, the absorption maximum (in ClC(Cl)Cl) is reported as 323.56 nm.
For `COc1ccc(-c2cc(-c3ccc(C)cc3)nc3c(C#N)c(N4CCCC4)nc(N)c23)cc1`, the absorption maximum (in CC#N) was 418 nm, the absorption maximum (in CC(C)=O) was 420 nm and the absorption maximum (in CC(C)O) was 414 nm. For the same molecule, the absorption maximum (in CO) was 414 nm, the absorption maximum (in ClC(Cl)Cl) was 418 nm and the absorption maximum (in ClCCl) was 422 nm. It also gave an absorption maximum (in c1ccccc1) of 424 nm.
In the case of `CC1(C)c2ccccc2N(c2ccc(-c3ccc(C#N)c(C#N)n3)cc2)c2ccccc21`, the absorption maximum (in Cc1ccccc1) is reported as 404 nm.
Molecule `CCCCCCc1ccc2c3c(ccc2c1)O[B-](c1ccccc1)(c1ccccc1)[N+](c1cc([N+]2=Cc4c(ccc5cc(CCCCCC)ccc45)O[B-]2(c2ccccc2)c2ccccc2)cc([N+]2=Cc4c(ccc5cc(CCCCCC)ccc45)O[B-]2(c2ccccc2)c2ccccc2)c1)=C3` has an absorption maximum (in C1CCOC1) of 445 nm, an absorption maximum (in CC#N) of 440 nm and an absorption maximum (in Cc1ccccc1) of 453 nm. The absorption maximum (in ClCCl) was 450 nm.
Molecule `N[C@@H](Cc1ccc(O)cc1)C(=O)O` has an absorption maximum (in O) of 285 nm.
In the case of `O=[N+]([O-])c1ccc(-n2c3ccccc3c3c2c2ccccc2n3-c2ccccc2)cc1`, the absorption maximum (in Cc1ccccc1) is reported as 418 nm.
`CC(C)(C)c1ccc(C2=C(c3ccc(C(C)(C)C)cc3)[Si](c3ccccc3)(c3ccccc3)c3ccccc32)cc1` showed an absorption maximum (in C1CCOC1) of 341 nm.
Molecule `CN(C)c1ccc(/C=C/c2ncnc3ccccc23)cc1` has an absorption maximum (in ClCCl) of 433 nm.
`CCC(CC)c1ccc2cc3c([o+]c2c1)/C(=C/Cc1ccccc1)CCC3` gave an absorption maximum (in CCO) of 604 nm, an absorption maximum (in ClC(Cl)Cl) of 616 nm and an absorption maximum (in ClCCl) of 615 nm.
For `CCN(CC)c1ccc(/C=C/C2=[O+][B-](F)(F)Oc3c2c(=O)oc2cc(N(CC)CC)ccc32)cc1`, the absorption maximum (in C1CCCCC1) was 542 nm, the absorption maximum (in C1COCCO1) was 569 nm and the absorption maximum (in CC#N) was 589 nm. It also gave an absorption maximum (in CC(C)=O) of 584 nm, an absorption maximum (in CCO) of 581 nm and an absorption maximum (in CCOC(C)=O) of 571 nm. It also gave an absorption maximum (in CO) of 582 nm, an absorption maximum (in CS(C)=O) of 607 nm and an absorption maximum (in Cc1ccccc1) of 567 nm. The absorption maximum (in ClC(Cl)Cl) was 581 nm, the absorption maximum (in ClCCl) was 587 nm and the absorption maximum (in OCC(O)CO) was 610 nm. It also gave an absorption maximum (in OCCO) of 605 nm.
With `CCN(CC)c1ccc2cc(-c3cc(SC)c(C#N)c(=O)o3)c(=O)oc2c1` the absorption maximum (in C1CCOC1) was 512 nm, the absorption maximum (in CC#N) was 514 nm and the absorption maximum (in CC(C)=O) was 514 nm. The absorption maximum (in CCOC(C)=O) was 509 nm, the absorption maximum (in CN(C)C=O) was 521 nm and the absorption maximum (in CO) was 514 nm. The absorption maximum (in CS(C)=O) was 527 nm, the absorption maximum (in Cc1ccccc1) was 509 nm and the absorption maximum (in ClC(Cl)Cl) was 517 nm. For the same molecule, the absorption maximum (in ClCCl) was 520 nm.
With `CCOC(=O)c1sc2nc(C)c(CC)c(C#N)c2c1N` the absorption maximum (in c1ccccc1) was 412 nm.
Work on `N#Cc1c(N2CCCCC2)cc(-c2ccccc2)c2c1Cc1ccccc1-2` yielded an absorption maximum (in C1CCOC1) of 358 nm.
With `c1ccc(-c2nn(-c3ccccc3)c3nc4ccc(N(c5ccccc5)c5ccccc5)cc4cc23)cc1` the absorption maximum (in C1CCCCC1) was 452.08 nm, the absorption maximum (in C1CCOC1) was 450.05 nm and the absorption maximum (in CC#N) was 447.03 nm. For the same molecule, the absorption maximum (in CC(C)=O) was 448.03 nm, the absorption maximum (in CCCCCl) was 451.06 nm and the absorption maximum (in CCCCOCCCC) was 451.06 nm. It also gave an absorption maximum (in CN(C)C=O) of 450.05 nm.
Work on `COc1cc(-c2nc3sc4ccccc4c3s2)cc(OC)c1OC` yielded an absorption maximum (in CS(C)=O) of 358 nm.
For `C=Cc1cc(OC)cc(OC)c1`, the absorption maximum (in C1CCCCC1) was 299 nm.

— the Deep4Chem optical property database
